The record followed here is ChEMBL document CHEMBL3244216, “Chemical modification of 1,4-diamino-1,4-dideoxy-3-O-(4-deoxy-4-propionamido-alpha-D-glucopyranosyl)-D-glucitol” (1978).

Values after ≈ are worked out from the molar mass of the structure shown. Active and inactive are the calls of the source. No cut-off for these calls is given here.

The test system of test [1] is Staphylococcus aureus. Briefly: Antibacterial activity against drug-sensitive Staphylococcus aureus 2985 assessed as growth inhibition by agar dilution method. The class given is functional. Details: unit not given here.
The test system of another test is Bacillus subtilis. Briefly: Antibacterial activity against drug-sensitive Bacillus subtilis 964 assessed as growth inhibition by agar dilution method. It is filed as functional. On the set-up: unit not given here.
For test [2], the system named is Enterococcus faecalis. Briefly: Antibacterial activity against Streptococcus faecalis 755 assessed as growth inhibition by agar dilution method. The class given is functional. On the set-up: unit not given here.
The test system of test [3] is Staphylococcus aureus. The test can be described thus: Antibacterial activity against Staphylococcus aureus 210 assessed as growth inhibition by agar dilution method. The class given is functional. On the set-up: unit not given here. On the technique in general: In agar dilution, organisms are placed on agar that contains the substance at set levels.
Test [4] has as its system Escherichia coli. Briefly: Antibacterial activity against drug-sensitive Escherichia coli 2482 assessed as growth inhibition by agar dilution method. The class given is functional. Details: unit not given here.
The test system of test [5] is Pseudomonas aeruginosa. Briefly: Antibacterial activity against Pseudomonas aeruginosa 2956 assessed as growth inhibition by agar dilution method. The class given is functional. On the set-up: unit not given here.
For test [6], the system named is Klebsiella. Briefly: Antibacterial activity against drug-sensitive Klebsiella 2921 assessed as growth inhibition by agar dilution method. It is filed as functional.
The subject of test [7] is Serratia. The test can be described thus: Antibacterial activity against unpigmented Serratia 2840 assessed as growth inhibition by agar dilution method. It is filed as functional. On the set-up: unit not given here.
Test [8] concerns Serratia. The test can be described thus: Antibacterial activity against pigmented Serratia 155 assessed as growth inhibition by agar dilution method. The class given is functional. On the set-up: unit not given here.
Test [9] has as its system Proteus vulgaris. Briefly: Antibacterial activity against drug-sensitive Proteus vulgaris 838 assessed as growth inhibition by agar dilution method. It is filed as functional. Details: unit not given here.
Test [10] deals with Salmonella. The test can be described thus: Antibacterial activity against drug-sensitive Salmonella 1287 assessed as growth inhibition by agar dilution method. The class given is functional. Details: unit not given here.
The subject of a further test is Erwinia. The test can be described thus: Antibacterial activity against drug-sensitive Erwinia 1159 assessed as growth inhibition by agar dilution method. It is filed as functional. Details: unit not given here.
Test [11] deals with Escherichia coli. The test can be described thus: Antibacterial activity against drug-sensitive Escherichia coli 60 assessed as growth inhibition by agar dilution method. On the set-up: unit not given here. It is filed as functional.
The test system of test [12] is Staphylococcus aureus. The test can be described thus: Antibacterial activity against streptomycin, neomycin, kanamycin-resistant Staphylococcus aureus 2314 assessed as growth inhibition at => 200 ul/ml by agar dilution method. It is filed as functional, organism-based.
The test system of test [13] is Enterococcus faecalis. Briefly: Antibacterial activity against Streptococcus faecalis 755 assessed as growth inhibition at => 200 ul/ml by agar dilution method. It is filed as functional, organism-based.
For test [14], the system named is Pseudomonas aeruginosa. Briefly: Antibacterial activity against Pseudomonas aeruginosa 2956 assessed as growth inhibition at => 200 ul/ml by agar dilution method. It is filed as functional, organism-based.
The subject of test [15] is Pseudomonas aeruginosa. Briefly: Antibacterial activity against kanamycin and gentamicin-resistant Pseudomonas aeruginosa 3033 assessed as growth inhibition at => 200 ul/ml by agar dilution method. The class given is functional, organism-based.
The test system of test [16] is Proteus vulgaris. Briefly: Antibacterial activity against drug-sensitive Proteus vulgaris 838 assessed as growth inhibition at => 200 ul/ml by agar dilution method. It is filed as functional, organism-based.
For test [17], the system named is Salmonella. The test can be described thus: Antibacterial activity against drug-sensitive Salmonella 1287 assessed as growth inhibition at => 200 ul/ml by agar dilution method. It is filed as functional, organism-based.
Test [18] deals with Staphylococcus aureus. The test can be described thus: Antibacterial activity against streptomycin, neomycin, kanamycin-resistant Staphylococcus aureus 2314 assessed as growth inhibition by agar dilution method. It is filed as functional.
Test [19] deals with Pseudomonas aeruginosa. The test can be described thus: Antibacterial activity against kanamycin and gentamicin-resistant Pseudomonas aeruginosa 3033 assessed as growth inhibition by agar dilution method. The class given is functional.
Test [20] concerns Brucella. Briefly: Antibacterial activity against drug-sensitive Brucella 965 assessed as growth inhibition by agar dilution method. Details: unit not given here. It is filed as functional.
Test [21] relates to Brucella. Briefly: Antibacterial activity against drug-sensitive Brucella 965 assessed as growth inhibition at => 200 ul/ml by agar dilution method. The class given is functional.
Test [22] has as its system Klebsiella. Briefly: Antibacterial activity against drug-sensitive Klebsiella 2921 assessed as growth inhibition at => 200 ul/ml by agar dilution method. The class given is functional, organism-based.
For test [23], the system named is Proteus vulgaris. The test can be described thus: Antibacterial activity against drug-sensitive Proteus vulgaris 838 assessed as growth inhibition at => 100 ul/ml by agar dilution method. The class given is functional, organism-based.
Test [24] deals with Escherichia coli. Briefly: Antibacterial activity against streptomycin, neomycin, kanamycin, gentamicin-resistant Escherichia coli 2964 assessed as growth inhibition by agar dilution method. The class given is functional.

As for `CCCC(=O)N[C@H]1[C@H](O)[C@@H](O)[C@@H](O[C@@H]([C@H](N)[C@H](O)CO)[C@@H](O)CN)O[C@@H]1CO`, the MIC stood at 200 in the test on Staphylococcus aureus [1]; 100 with Bacillus subtilis; 200 with Enterococcus faecalis [2]; 200 in the test on Staphylococcus aureus [3]; 200 with Escherichia coli [4]; 200 with Pseudomonas aeruginosa [5]. The MIC in the test on Klebsiella [6] is 200 uL/ml; with Serratia [7], 200; in the test on Serratia [8] it was above 200; with Proteus vulgaris [9], 200; in the test on Salmonella [10], 200; with Erwinia, above 200. Besides, the MIC in the test with Escherichia coli [11] worked out at 200. Further, the “growth inhibition (GI)” value in the test on Staphylococcus aureus [12], in the test with Enterococcus faecalis [13], with Pseudomonas aeruginosa [14], in the test on Pseudomonas aeruginosa [15], in the test with Proteus vulgaris [16] and with Salmonella [17] was “inactive” throughout.
Take `CCC(=O)N[C@H]1[C@H](O)[C@@H](O)[C@@H](O[C@@H]([C@H](N)[C@H](O)CO)[C@@H](O)CN)O[C@@H]1CO`: the MIC in the test on Staphylococcus aureus [1] turned out to be 100; in the test on Staphylococcus aureus [18] it was 200 µg/mL (≈ 503 µM); with Bacillus subtilis, 50; in the test on Enterococcus faecalis [2], 200; in the test with Staphylococcus aureus [3], 50; in the test with Escherichia coli [4], 50. In addition, the MIC is 50 with Pseudomonas aeruginosa [5]; 100 µg/mL (≈ 252 µM) with Pseudomonas aeruginosa [19]; 200 in the test on Serratia [7]; above 200 in the test on Serratia [8]; 100 in the test on Proteus vulgaris [9]; below 3.1 with Salmonella [10]. The MIC in the test with Erwinia is recorded as below 3.1; with Escherichia coli [11], 50; in the test on Brucella [20], 100.
Take `CC(=O)N[C@H]1[C@H](O)[C@@H](O)[C@@H](O[C@@H]([C@H](N)[C@H](O)CO)[C@@H](O)CN)O[C@@H]1CO`: the MIC is 200 with Staphylococcus aureus [1]; above 200 µg/mL with Staphylococcus aureus [18]; 100 with Bacillus subtilis; above 200 in the test with Enterococcus faecalis [2]; 200 with Staphylococcus aureus [3]; 100 with Escherichia coli [4]. Also, the MIC in the test on Pseudomonas aeruginosa [19] was above 200 µg/mL; with Serratia [7], above 200; with Serratia [8], above 200; in the test with Proteus vulgaris [9] it was 200; in the test with Salmonella [10] it was 200; with Erwinia, 100. Also, the MIC in the test with Escherichia coli [11] and with Brucella [20] was 200 each time. The “growth inhibition (GI)” value in the test on Brucella [21] was “inactive”.
With `CCCN[C@H]1[C@H](O)[C@@H](O)[C@@H](O[C@@H]([C@H](N)[C@H](O)CO)[C@@H](O)CN)O[C@@H]1CO`, the MIC came to 50 in the test on Staphylococcus aureus [1]; 100 µg/mL (≈ 261 µM) in the test with Staphylococcus aureus [18]; 50 in the test with Bacillus subtilis; 200 in the test on Enterococcus faecalis [2]; 50 with Staphylococcus aureus [3]; 200 in the test on Escherichia coli [4]. In addition, the MIC in the test with Pseudomonas aeruginosa [5] was 200; in the test with Pseudomonas aeruginosa [19] it was above 200 µg/mL; in the test with Klebsiella [6], 200 uL/ml; with Serratia [7], 200; in the test on Proteus vulgaris [9] it was 200; in the test with Salmonella [10] it was 100. In addition, the MIC with Escherichia coli [11] and in the test on Brucella [20] was 200 each time. Moreover, the “growth inhibition (GI)” value in the test on Enterococcus faecalis [13], in the test on Pseudomonas aeruginosa [14], in the test on Klebsiella [22] and with Proteus vulgaris [23] was “inactive” throughout.
As for `CCC(=O)N[C@H]1[C@H](O)[C@@H](O)[C@@H](O[C@@H]([C@H](N)[C@H](O)CO)[C@@H](O)CN)O[C@@H]1CCl`, the MIC with Staphylococcus aureus [1] was found to be 50; with Staphylococcus aureus [18] it was 200 µg/mL (≈ 481 µM); with Bacillus subtilis, 50; in the test with Enterococcus faecalis [2] it was 200; in the test on Staphylococcus aureus [3], 50; in the test on Escherichia coli [4], 100. For the same compound, the MIC with Pseudomonas aeruginosa [5] amounted to 100; with Klebsiella [6], 50 uL/ml; in the test with Serratia [7], 100; in the test with Serratia [8] it was 200; in the test with Proteus vulgaris [9] it was 200; in the test on Salmonella [10], 50. Further, the MIC with Erwinia is reported as above 25; in the test with Escherichia coli [11], 100; in the test on Brucella [20], 100.
Take `NC[C@H]1O[C@H](O[C@H]2[C@H](O)[C@@H](O[C@H]3O[C@H](CO)[C@@H](O)[C@H](N)[C@H]3O)[C@H](N)C[C@@H]2N)[C@H](O)[C@@H](O)[C@@H]1O` [KANAMYCIN]: the results for the MIC with Staphylococcus aureus [18], with Escherichia coli [24] and in the test on Pseudomonas aeruginosa [19] were above 100 µg/mL, 100 µg/mL (≈ 206 µM) and 100 µg/mL (≈ 206 µM), respectively.
